Activity calls are given as the source filed them. The rule behind the calls is not given here.
Legend:
SK-LU-1 [1] = assay: Antiproliferative activity against human SK-LU-1 cells after 48 hrs by sulforhodamine B assay; format: functional, cell-based; conditions: SK-LU-1, 48 h
[2] = Inhibition of TNFalpha-stimulated NFkappaB (unknown origin) expressed in mouse NIH-3T3-KBFLuc cells at 50 uM after 6 hrs by luciferase reporter gene assay relative to control; format: cell-based; conditions: Homo sapiens
[3] = target: T1, Nuclear factor erythroid 2-related factor 2 (Homo sapiens) (UniProt Q16236); assay: Activation of Nrf2 in human HaCaT-ARE-Luc cells at 50 uM after 6 hrs by luciferase reporter gene assay relative to control; format: cell-based
T1 sequence (whole entry): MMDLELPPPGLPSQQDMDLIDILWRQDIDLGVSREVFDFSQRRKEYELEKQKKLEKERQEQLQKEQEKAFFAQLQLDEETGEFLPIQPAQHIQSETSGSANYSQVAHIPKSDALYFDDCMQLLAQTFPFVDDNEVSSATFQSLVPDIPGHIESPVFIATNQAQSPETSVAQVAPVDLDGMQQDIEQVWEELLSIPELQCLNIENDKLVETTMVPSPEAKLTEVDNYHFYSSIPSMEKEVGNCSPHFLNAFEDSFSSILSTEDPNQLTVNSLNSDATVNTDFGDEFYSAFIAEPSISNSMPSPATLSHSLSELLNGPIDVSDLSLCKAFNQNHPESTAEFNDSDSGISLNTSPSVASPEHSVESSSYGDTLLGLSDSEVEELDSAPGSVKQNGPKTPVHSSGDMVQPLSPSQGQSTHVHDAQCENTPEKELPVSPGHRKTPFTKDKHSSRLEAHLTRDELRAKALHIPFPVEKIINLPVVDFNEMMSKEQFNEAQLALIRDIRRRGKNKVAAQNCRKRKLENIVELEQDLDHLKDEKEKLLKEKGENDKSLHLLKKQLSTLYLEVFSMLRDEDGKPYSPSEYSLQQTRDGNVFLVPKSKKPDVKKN

K562 [4] = assay: Antiproliferative activity against human K562 cells at 50 uM after 48 hrs by sulforhodamine B assay relative to control; format: functional; conditions: for inhibition at 50 µM: K562, 48 h
SK-LU-1 [5] = assay: Antiproliferative activity against human SK-LU-1 cells at 50 uM after 48 hrs by sulforhodamine B assay relative to control; format: functional; conditions: for inhibition at 50 µM: SK-LU-1, 48 h
U-251 [6] = assay: Antiproliferative activity against human U251 cells after 48 hrs by sulforhodamine B assay; format: functional, cell-based; conditions: U-251, 48 h
PC-3 [7] = assay: Antiproliferative activity against human PC3 cells after 48 hrs by sulforhodamine B assay; format: functional, cell-based; conditions: PC-3, 48 h
PC-3 [8] = assay: Antiproliferative activity against human PC3 cells at 50 uM after 48 hrs by sulforhodamine B assay relative to control; format: functional; conditions: PC-3, 48 h
HCT-15 [9] = assay: Antiproliferative activity against human HCT15 cells at 50 uM after 48 hrs by sulforhodamine B assay relative to control; format: functional; conditions: for inhibition at 50 µM: HCT-15, 48 h
K562 [10] = assay: Antiproliferative activity against human K562 cells after 48 hrs by sulforhodamine B assay; format: functional, cell-based; conditions: K562, 48 h
HCT-15 [11] = assay: Antiproliferative activity against human HCT15 cells after 48 hrs by sulforhodamine B assay; format: functional, cell-based; conditions: HCT-15, 48 h
MCF7 [12] = assay: Antiproliferative activity against human MCF7 cells at 50 uM after 48 hrs by sulforhodamine B assay relative to control; format: functional; conditions: MCF7, 48 h
MCF7 [13] = assay: Antiproliferative activity against human MCF7 cells after 48 hrs by sulforhodamine B assay; format: functional, cell-based; conditions: MCF7, 48 h
[14] = target: Signal transducer and activator of transcription 3 (Homo sapiens) (UniProt P40763); assay: Inhibition of IFNgamma-stimulated STAT3 (unknown origin) activation expressed in human HeLa cells at 50 uM after 6 hrs by luciferase reporter gene assay relative to control; format: cell-based
U-251 [15] = assay: Antiproliferative activity against human U251 cells at 50 uM after 48 hrs by sulforhodamine B assay relative to control; format: functional; conditions: for inhibition at 50 µM: U-251, 48 h

Chain of Signal transducer and activator of transcription 3 (Homo sapiens) (P40763 whole entry): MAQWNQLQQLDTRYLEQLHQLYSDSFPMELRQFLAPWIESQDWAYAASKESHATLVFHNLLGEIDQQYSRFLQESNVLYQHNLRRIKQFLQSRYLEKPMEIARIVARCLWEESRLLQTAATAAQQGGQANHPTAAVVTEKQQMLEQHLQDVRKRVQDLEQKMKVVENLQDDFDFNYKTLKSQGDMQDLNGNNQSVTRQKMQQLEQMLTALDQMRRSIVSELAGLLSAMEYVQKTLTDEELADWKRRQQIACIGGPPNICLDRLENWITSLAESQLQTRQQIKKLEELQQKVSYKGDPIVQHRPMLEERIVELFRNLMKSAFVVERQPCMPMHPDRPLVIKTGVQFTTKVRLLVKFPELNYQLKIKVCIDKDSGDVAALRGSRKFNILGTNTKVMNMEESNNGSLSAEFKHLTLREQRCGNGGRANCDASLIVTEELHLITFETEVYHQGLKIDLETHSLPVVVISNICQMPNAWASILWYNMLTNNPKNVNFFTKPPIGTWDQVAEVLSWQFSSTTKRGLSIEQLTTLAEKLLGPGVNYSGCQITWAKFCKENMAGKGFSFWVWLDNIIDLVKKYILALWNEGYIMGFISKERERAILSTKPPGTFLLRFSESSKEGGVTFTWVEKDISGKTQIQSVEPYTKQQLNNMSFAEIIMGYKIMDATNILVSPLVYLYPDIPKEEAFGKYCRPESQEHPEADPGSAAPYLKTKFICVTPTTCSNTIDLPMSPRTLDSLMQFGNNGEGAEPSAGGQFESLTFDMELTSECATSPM

SMILES | IC50 (SK-LU-1 [1]) [µM] | inhibition [2] [%] | fold change (FC) [3] | inhibition at 50 µM (K562 [4]) [%] | inhibition at 50 µM (SK-LU-1 [5]) [%] | IC50 (U-251 [6]) [µM] | IC50 (PC-3 [7]) [µM] | inhibition at 50 µM (PC-3 [8]) [%] | inhibition at 50 µM (HCT-15 [9]) [%] | IC50 (K562 [10]) [µM] | IC50 (HCT-15 [11]) [µM] | inhibition at 50 µM (MCF7 [12]) [%] | IC50 (MCF7 [13]) [µM] | inhibition [14] [%] | inhibition at 50 µM (U-251 [15]) [%] | inhibition (K562 [4]) | inhibition (SK-LU-1 [5]) | inhibition (HCT-15 [9]) | inhibition (U-251 [15])
Cc1cc2c(C(C)C)ccc(C)c2cc1OC(=O)c1ccc(Cl)cc1 | 23.9 | 15.5 | 1.7 | 95.4 | 100 | 35.5 | 44 | 81.1 | 82.2 | 19.1 | 34 | 76 | 32.1 | 1.3 | 92.8 |  |  |  | 
COc1c(C(C)C)cc(C)c2ccc(C)cc12 |  | 26.5 | 1.9 |  |  |  |  |  |  |  |  |  |  | 0.9 |  |  |  |  | 
COc1ccc(C(=O)Oc2cc3c(C)ccc(C(C)C)c3cc2C)cc1 |  | 26.9 | 1.3 | 88.6 | 32.8 |  |  | 10.4 | 84 |  |  | 93.4 |  | 2.5 | 42.6 |  |  |  | 
CC1=CC[C@H](C(C)C)c2cc(C)c(OC(=O)c3cccc([N+](=O)[O-])c3)cc21 |  | 3.5 | 1.5 | 15.9 | 60.4 |  |  | 36.9 | 45.9 |  |  | 29.3 |  | 3.2 | 44 |  |  |  | 
CC1=CC[C@H](C(C)C)c2cc(C(=O)O)ccc21 |  | 7.3 | 1.8 |  |  |  |  |  |  |  |  |  |  | 2.9 |  |  |  |  | 
CC1=CC[C@H](C(C)C)c2cc(C)c(OC(=O)c3ccc(Cl)cc3)cc21 |  | 36.1 | 1.3 | 58.9 | 17.4 |  |  | 34.1 | 47.4 |  |  | 79.7 |  | 2.7 | 25.6 |  |  |  | 
CC1=CC[C@H](C(C)C)c2cc(C)c(OC(=O)c3ccccc3)cc21 |  | 47.2 | 6.6 |  | 37 |  |  | 22.5 | 49.5 |  |  | 60.7 |  | 2.4 | 25.8 | inactive |  |  | 
CC1=CC[C@H](C(C)C)c2cc(C)c(OC(=O)c3cccc(C)c3)cc21 |  | 44.2 | 1.7 |  |  |  |  | 38.6 | 5.3 |  |  | 54.9 |  | 2.3 | 16.8 | inactive | inactive |  | 
Cc1cccc(C(=O)Oc2cc3c(C)ccc(C(C)C)c3cc2C)c1 |  | 4.8 | 1.8 | 17.1 |  |  | 47.1 | 52.4 | 27.6 |  |  | 50.4 |  | 2 | 5.2 |  | inactive |  | 
Cc1cc2c(C(C)C)ccc(C)c2cc1OC(=O)c1ccc(C(F)(F)F)cc1 |  | 5.2 | 1.7 | 45.1 | 28.7 |  | 34 | 100 | 55.6 |  |  | 16.8 |  | 0.9 | 16.5 |  |  |  | 
COc1cccc(C(=O)Oc2cc3c(cc2C)[C@@H](C(C)C)CC=C3C)c1 |  | 41.2 | 1.6 |  | 24.2 |  |  | 16.3 |  |  |  | 11.9 |  | 3.3 |  | inactive |  | inactive | inactive
Cc1cc2c(C(C)C)ccc(C=O)c2cc1O |  | 40.1 | 1.6 |  |  |  |  |  |  |  |  |  |  | 3.5 |  |  |  |  | 
Cc1cc2c(C(C)C)ccc(C)c2cc1OC(=O)c1cccc(Cl)c1 |  | 25.6 | 1.7 |  | 11.6 |  |  | 4.2 |  |  |  | 11.4 |  | 1.8 | 0.8 | inactive |  | inactive | 
